Tests used:
Experiment in all cases: relative viability (nuclei count vs DMSO), 5 days (fraction); higher = more cells survive
[1] = compound: COc1cc2ncn(-c3cc(OCc4ccccc4C(F)(F)F)c(C(N)=O)s3)c2cc1OC + CC(=O)Nc1cccc(-n2c(=O)n(C3CC3)c(=O)c3c(Nc4ccc(I)cc4F)n(C)c(=O)c(C)c32)c1 [Trametinib] (partner 0.02 µM)
Method in brief: (§1)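 After 5 days of treatment, lung cancer cells in 1536-well plates were fixed and stained in a single step (final 0.05% Triton X-100, 1% formaldehyde, 1 ug/ml Hoechst) and their nuclei counted on 4× images. Treatment had been applied by pin tool the day after seeding as one drug alone or as a fixed anchor-drug dose with five library-drug doses (not always all listed) in √10 steps. Relative viability is the nuclei count of treated wells divided by that of vehicle wells, and values are medians of duplicate plates.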

[2] = compound: COc1cc2ncn(-c3cc(OCc4ccccc4C(F)(F)F)c(C(N)=O)s3)c2cc1OC + CC1(C)CCC(c2ccc(Cl)cc2)=C(CN2CCN(c3ccc(C(=O)NS(=O)(=O)c4ccc(N[C@H](CCN5CCOCC5)CSc5ccccc5)c(S(=O)(=O)C(F)(F)F)c4)cc3)CC2)C1 [Navitoclax] (partner 0.5 µM)
Method in brief: as §1

[3] = compound: COc1cc2ncn(-c3cc(OCc4ccccc4C(F)(F)F)c(C(N)=O)s3)c2cc1OC + Nc1nc2[nH]cc(CCc3ccc(C(=O)N[C@@H](CCC(=O)O)C(=O)O)cc3)c2c(=O)[nH]1 [Pemetrexed] (partner 0.2 µM)
Method in brief: as §1

[4] = compound: COc1cc2ncn(-c3cc(OCc4ccccc4C(F)(F)F)c(C(N)=O)s3)c2cc1OC + N=C(N)NC(=N)NCCc1ccccc1 [Phenformin] (partner 250 µM)
Method in brief: as §1

Cell Line	relative viability ([1]; first compound 0.05 µM)	relative viability ([1]; first compound 0.1581 µM)	relative viability ([1]; first compound 0.5 µM)	relative viability ([1]; first compound 1.581 µM)	relative viability ([1]; first compound 5 µM)	relative viability ([2]; first compound 0.05 µM)	relative viability ([2]; first compound 0.1581 µM)	relative viability ([2]; first compound 0.5 µM)	relative viability ([2]; first compound 1.581 µM)	relative viability ([2]; first compound 5 µM)	relative viability ([3]; first compound 0.05 µM)	relative viability ([3]; first compound 0.1581 µM)	relative viability ([3]; first compound 0.5 µM)	relative viability ([3]; first compound 1.581 µM)	relative viability ([3]; first compound 5 µM)	relative viability ([4]; first compound 0.05 µM)	relative viability ([4]; first compound 0.1581 µM)	relative viability ([4]; first compound 0.5 µM)	relative viability ([4]; first compound 1.581 µM)	relative viability ([4]; first compound 5 µM)
NCI-H2087	0.239	0.196	0.143	0.0778	0.111	1.04	0.974	0.194	0.136	0.134	0.617	0.684	0.414	0.11	0.106	0.51	0.458	0.269	0.111	0.107
LU99A	0.589	0.236	0.343	0.171	0.128	0.87	0.786	0.434	0.169	0.124	0.204	0.169	0.204	0.154	0.146	1.01	0.865	0.723	0.241	0.174
NCI-H1355	0.274	0.403	0.326	0.176	0.127	1.04	0.914	0.536	0.177	0.136	1.12	0.924	0.88	0.223	0.141	0.453	0.434	0.358	0.17	0.161
NCI-H520	0.644	0.561	0.236	0.171	0.166	1.04	1.18	0.454	0.201	0.162	0.301	0.663	0.247	0.204	0.171	0.598	0.642	0.269	0.266	0.211
NCI-H727	0.431	0.377	0.338	0.385	0.396	0.457	0.618	0.464	0.166	0.185	–	–	–	–	–	0.652	0.432	0.372	0.363	0.399
NCI-H661	0.692	0.491	0.299	0.244	0.219	–	–	–	–	–	0.989	0.819	0.482	0.303	0.269	0.28	0.249	0.2	0.21	0.18
NCI-H650	0.954	0.722	0.6	0.204	0.489	–	–	–	–	–	1.01	0.923	0.768	0.261	0.458	0.511	0.458	0.374	0.171	0.205
201T	0.707	0.728	0.691	0.647	0.301	1.26	1.2	1.19	0.902	0.326	0.355	0.319	0.29	0.303	0.192	0.482	0.252	0.413	0.242	0.205
PC-14	0.555	0.727	0.281	0.053	0.0472	1.03	0.97	0.407	0.151	0.273	0.132	0.148	0.126	0.048	0.0388	0.501	0.561	0.465	0.119	0.0948
